Data published in US20180213796A1, “PLANT DISEASE CONTROL COMPOSITION AND PLANT DISEASE CONTROL METHOD” (SUMITOMO CHEMICAL COMPANY, LIMITED, priority 2015, published 2018).

How the values were obtained:
[1] = test system: damping-off fungus (Rhizoctonia solani); assay: Test Example 14: corn seed treatment, pot test in soil mixed with damping-off fungus, control value; format: in vivo; details: corn seeds, 20 days after
Protocol: In a rotary seed treatment machine (trade name: HEGE11, manufactured by […]), corn seeds (variety: yellow dent corn) were treated by smearing treatment using a flowable formulation of the present bacterial strain as obtained in Formulation Example 19, metconazole flowable formulation (40.0% flowable formulation, trade name: Metolock Fungicide, Valent U.S.A. Corporation), a chemical liquid prepared by dissolving tebuconazole in acetone/Tween 20 (weight ratio=95:5) and diluting with water, a chemical liquid prepared by dissolving prothioconazole in acetone/Tween 20 (weight ratio=95:5) and diluting with water, a chemical liquid prepared by dissolving difenoconazole in acetone/Tween 20 (weight ratio=95:5) and diluting with water, a chemical liquid prepared by dissolving triticonazole in acetone/Tween 20 (weight ratio=95:5) and diluting with water, a chemical liquid prepared by dissolving triadimenol in acetone/Tween 20 (weight ratio=95:5) and diluting with water, a chemical liquid prepared by dissolving bromconazole in acetone/Tween 20 (weight ratio=95:5) and diluting with water, so that the soybean seeds retain the present bacterial strain and the compound in the amount shown in Table 4.
Cultivation was carried out in a greenhouse under irrigation (“treated compartment”). The plants were investigated 20 days after for the number of diseased plants, and the disease incidence was calculated by the following “Equation 1”. […] The plants were investigated 20 days after for the number of diseased plants, and the disease incidence was calculated by the following “Equation 1”. The control value of the treated compartment was calculated by the following equation “Equation 2”, based on the disease incidences of the treated compartment and the untreated compartment.
Disease incidence (%)=100×(number of diseased plant/total number of seeded seeds) Equation 1
Control value (%)=100×[(disease incidence in untreated compartment−disease incidence in treated compartment)/disease incidence in untreated compartment] Equation 2 […]

[2] = test system: damping-off fungus (Rhizoctonia solani); assay: Test Example 15: soybean seed treatment, pot test in soil mixed with damping-off fungus, control value; format: in vivo; details: soybean seeds, 20 days after
Protocol: In a rotary seed treatment machine (trade name: HEGE11, manufactured by WINTERSTEIGER), soybean seeds (variety: “Hatayutaka”) were treated by smearing treatment using the flowable formulation of the present bacterial strain obtained in Formulation Example 19 and a chemical liquid wherein ipconazole was dissolved in acetone/Tween 20 (weight ratio=95:5) and diluted with water, so that the soybean seeds retain the present bacterial strain and the compound in the amount shown in Table 5.
Cultivation was carried out in a greenhouse under irrigation (“treated compartment”). The plants were investigated 20 days after for the number of diseased plants, and the disease incidence was calculated by the following “Equation 1”. Also, similar procedures were conducted using untreated soybean seeds, instead of the treated soybean seeds, as described above for the treated compartment (“untreated compartment”). The plants were investigated 20 days after for the number of diseased plants, and the disease incidence was calculated by the following “Equation 1”. The control value of the treated compartment was calculated by the following equation “Equation 2”, based on the disease incidences of the treated compartment and the untreated compartment.
Disease incidence (%)=100×(number of diseased plant/total number of seeded seeds) Equation 1 […]

[3] = compound alone 0.005 g/Kg seeds

SMILES | Controlling Effect (control value) [1, 3] | Controlling Effect (control value) ([1]; compound alone 0.01 g/Kg seeds) | other results
Clc1ccc(C2(Cn3cncn3)CC(Br)CO2)c(Cl)c1 (stereo not shown) [Bromconazole] | 17% | 33% | 
CC1COC(Cn2cncn2)(c2ccc(Oc3ccc(Cl)cc3)cc2Cl)O1 (stereo not shown) [Difenoconazole] | 58% |  | Controlling Effect (control value) ([1]; compound alone 0.0025 g/Kg seeds): 33%
CC(C)C1CCC(Cc2ccc(Cl)cc2)C1(O)Cn1cncn1 (stereo not shown) [Ipconazole] |  |  | Controlling Effect (control value) [2, 3]: 27%; Controlling Effect (control value) ([2]; compound alone 0.01 g/Kg seeds): 33%
CC1(C)CCC(Cc2ccc(Cl)cc2)C1(O)Cn1cncn1 (stereo not shown) [Metconazole] |  |  | Controlling Effect (control value) ([1]; compound alone 0.0005 g/Kg seeds): 25%; Controlling Effect (control value) ([1]; compound alone 0.001 g/Kg seeds): 33%
OC(Cc1ccccc1Cl)(Cn1nc[nH]c1=S)C1(Cl)CC1 (stereo not shown) [Prothioconazole] | 42% | 50% | 
CC(C)(C)C(O)(CCc1ccc(Cl)cc1)Cn1cncn1 (stereo not shown) [Tebuconazole] |  | 25% | Controlling Effect (control value) ([1]; compound alone 0.02 g/Kg seeds): 33%
CC(C)(C)C(O)C(Oc1ccc(Cl)cc1)n1cncn1 (stereo not shown) [Triadimenol] | 33% | 42% | 
CC1(C)CCC(=Cc2ccc(Cl)cc2)C1(O)Cn1cncn1 (stereo not shown) [Triticonazole] | 17% | 25% | 
